Laboratory results published in patent US7138361B2, “Herbicidal heterocycles” (E. I. du Pont de Nemours and Company, priority 2000, dated 2006).

Assays:
Format in all cases: in vivo
[1] = system: duck salad (Heteranthera limosa); assay: Test C flooded paddy test; details: for Ducksalad plant response rating: Flooded Paddy, scale 0 to 100, 0 no effect, 100 complete control; for Plant response rating, Ducksalad: flooded paddy test, scale 0 to 100 (0 no effect, 100 complete control)
Summary of the method: (§1)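 Plants were grown to the 2-leaf stage under flooded paddy conditions and treated. They were then kept in a greenhouse for 12 to 14 days and visually rated against untreated controls on a 0–100 scale, where 0 is no effect and 100 is complete control.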

[2] = system: rice (Oryza saliva); assay: Test C flooded paddy test; details: for Rice plant response rating: Flooded Paddy, scale 0 to 100, 0 no effect, 100 complete control; for Plant response rating, Rice: flooded paddy test, scale 0 to 100 (0 no effect, 100 complete control)
Summary of the method: as §1

[3] = system: barnyardgrass (Echinochloa crus-galli); assay: Test C flooded paddy test; details: for Barnyardgrass plant response rating: Flooded Paddy, scale 0 to 100, 0 no effect, 100 complete control; for Plant response rating, Barnyardgrass: flooded paddy test, scale 0 to 100 (0 no effect, 100 complete control)
Summary of the method: as §1

[4] = system: smallflower flatsedge (Cyperus difformis); assay: Test C flooded paddy test; details: for Flatsedge plant response rating: Flooded Paddy, scale 0 to 100, 0 no effect, 100 complete control; for Plant response rating, Flatsedge: flooded paddy test, scale 0 to 100 (0 no effect, 100 complete control)
Summary of the method: as §1

[5] = system: Sunflower; assay: Test C preemergence; details: scale 0 to 100, 0 no effect, 100 complete control
[6] = system: blackgrass (Alopecurus myosuroides); assay: Test B postemergence; details: 13 to 15 days
Summary of the method: (§2)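 Preemergence: seeds planted and treated with test chemicals in non-phytotoxic solvent with surfactant; postemergence on plants 2–18 cm (1- to 4-leaf stage). Kept in greenhouse 13–15 days, then visually rated against controls on a 0 (no effect) to 100 (complete control) scale.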

[7] = system: velvetleaf (Abutilon theophrasti); assay: Test B postemergence; details: 13 to 15 days
Summary of the method: as §2

[8] = system: barnyardgrass (Echinochloa crus-galli); assay: Test B postemergence; details: 13 to 15 days
Summary of the method: as §2

[9] = system: pigweed (Amaranthus retroflexus); assay: Test B postemergence; details: 13 to 15 days
Summary of the method: as §2

[10] = system: corn (Zea mays); assay: Test B postemergence; details: 13 to 15 days
Summary of the method: as §2

[11] = system: Surinam grass (Brachiaria decumbens); assay: Test B postemergence; details: 13 to 15 days
Summary of the method: as §2

[12] = system: wheat (Triticum aestivum); assay: Test B postemergence; details: 13 to 15 days
Summary of the method: as §2

[13] = system: morning glory (Ipomoea hederacea); assay: Test B postemergence; details: 13 to 15 days
Summary of the method: as §2

[14] = system: giant foxtail (Setaria faberii); assay: Test B postemergence; details: 13 to 15 days
Summary of the method: as §2

[15] = system: lambsquarters (Chenopodium album); assay: Test B preemergence
Summary of the method: as §2

[16] = system: velvetleaf (Abutilon theophrasti); assay: Test B preemergence
Summary of the method: as §2

[17] = system: rice (Oryza saliva); assay: Test B preemergence
Summary of the method: as §2

[18] = system: barnyardgrass (Echinochloa crus-galli); assay: Test B preemergence
Summary of the method: as §2

[19] = system: pigweed (Amaranthus retroflexus); assay: Test B preemergence
Summary of the method: as §2

[20] = system: corn (Zea mays); assay: Test B preemergence
Summary of the method: as §2

[21] = system: crabgrass (Digitaria sanguinalis); assay: Test B preemergence
Summary of the method: as §2

[22] = system: Surinam grass (Brachiaria decumbens); assay: Test B preemergence
Summary of the method: as §2

[23] = system: morning glory (Ipomoea hederacea); assay: Test B preemergence
Summary of the method: as §2

[24] = system: giant foxtail (Setaria faberii); assay: Test B preemergence
Summary of the method: as §2

[25] = system: cocklebur (Xanthium strumarium); assay: Test B preemergence
Summary of the method: as §2

[26] = system: Nightshade; assay: Test C preemergence; details: visual evaluation after 12 to 14 days
[27] = Rate 125 g/ha, scale 0 (no effect) to 100 (complete control)
[28] = Rate 500 g/ha, scale 0 to 100, 0 is no effect, 100 is complete control
[29] = Preemergence, Rate 500 g/ha, scale 0 to 100, 0 no effect, 100 complete control
[30] = preemergence, Rate 125 g/ha, scale of 0 to 100 where 0 is no effect and 100 is complete control, 13 to 15 days

CC(C)(C)c1ccn(C2CCN(c3cccc(OC(F)(F)F)c3)C2=O)n1 (centres unmarked) [Compound 49]
Ducksalad plant response rating ([1]; Rate 250 g/ha): 90 | Ducksalad plant response rating ([1]; Rate 500 g/ha): 100 | Plant response rating, Ducksalad ([1]; Rate 62 g/ha): 50 | Plant response rating, Ducksalad ([1]; Rate 125 g/ha): 70 | Rice plant response rating ([2]; Rate 250 g/ha): 30 | Rice plant response rating ([2]; Rate 500 g/ha): 90 | Plant response rating, Rice ([2]; Rate 62 g/ha): 20 | Barnyardgrass plant response rating ([3]; Rate 250 g/ha): 100 | Barnyardgrass plant response rating ([3]; Rate 500 g/ha): 100 | Plant response rating, Barnyardgrass ([3]; Rate 62 g/ha): 100 | Plant response rating, Barnyardgrass ([3]; Rate 125 g/ha): 100 | Flatsedge plant response rating ([4]; Rate 250 g/ha): 100 | Flatsedge plant response rating ([4]; Rate 500 g/ha): 100 | Plant response rating, Flatsedge ([4]; Rate 62 g/ha): 100 | Plant response rating, Flatsedge ([4]; Rate 125 g/ha): 100 | Plant response rating, Sunflower ([5]; Rate 125 g/ha): 20 | Plant response rating, Blackgrass [6, 27]: 0 | Plant response rating, Blackgrass [6, 28]: 60 | Plant response rating, Velvetleaf [7, 27]: 0 | Plant response rating, Velvetleaf [7, 28]: 40 | Plant response rating, Barnyardgrass [8, 27]: 0 | Plant response rating, Barnyardgrass [8, 28]: 80 | Plant response rating, Pigweed [9, 27]: 30 | Plant response rating, Pigweed [9, 28]: 30 | Plant response rating, Corn [10, 27]: 0 | Plant response rating, Corn [10, 28]: 0 | Plant response rating, Surinam grass [11, 27]: 0 | Plant response rating, Surinam grass [11, 28]: 90 | Plant response rating, Wheat [12, 27]: 0 | Plant response rating, Wheat [12, 28]: 0 | Plant response rating, Morningglory [13, 27]: 0 | Plant response rating, Morningglory [13, 28]: 30 | Plant response rating, Foxtail, Giant [14, 27]: 0 | Plant response rating, Foxtail, Giant [14, 28]: 0 | Plant response rating, Lambsquarters [15, 29]: 100 | Plant response rating, Lambsquarters [15, 30]: 100 | Plant response rating, Velvetleaf [16, 29]: 0 | Plant response rating, Velvetleaf [16, 30]: 0 | Plant response rating, Rice [17, 29]: 20 | Plant response rating, Rice [17, 30]: 0 | Plant response rating, Barnyardgrass [18, 29]: 100 | Plant response rating, Barnyardgrass [18, 30]: 100 | Plant response rating, Pigweed [19, 29]: 100 | Plant response rating, Pigweed [19, 30]: 100 | Plant response rating, Corn [20, 29]: 0 | Plant response rating, Corn [20, 30]: 0 | Plant response rating, Crabgrass [21, 29]: 0 | Plant response rating, Crabgrass [21, 30]: 0 | Plant response rating, Surinam grass [22, 29]: 0 | Plant response rating, Surinam grass [22, 30]: 0 | Plant response rating, Morningglory [23, 29]: 30 | Plant response rating, Morningglory [23, 30]: 0 | Plant response rating, Foxtail, Giant [24, 29]: 90 | Plant response rating, Foxtail, Giant [24, 30]: 0 | Plant response rating, Cocklebur [25, 29]: 0 | Plant response rating, Cocklebur [25, 30]: 0 | Plant response rating (0 to 100), Nightshade ([26]; Rate 250 g/ha): 50

CC1(c2ccn(C3SCN(c4cccc(C(F)(F)F)c4)C3=O)n2)CC1 (centres unmarked) [Compound 64]
Ducksalad plant response rating ([1]; Rate 250 g/ha): 90 | Ducksalad plant response rating ([1]; Rate 500 g/ha): 90 | Plant response rating, Ducksalad ([1]; Rate 62 g/ha): 0 | Plant response rating, Ducksalad ([1]; Rate 125 g/ha): 30 | Rice plant response rating ([2]; Rate 250 g/ha): 80 | Rice plant response rating ([2]; Rate 500 g/ha): 90 | Plant response rating, Rice ([2]; Rate 62 g/ha): 0 | Plant response rating, Rice ([2]; Rate 125 g/ha): 20 | Barnyardgrass plant response rating ([3]; Rate 250 g/ha): 80 | Barnyardgrass plant response rating ([3]; Rate 500 g/ha): 100 | Plant response rating, Barnyardgrass ([3]; Rate 62 g/ha): 20 | Plant response rating, Barnyardgrass ([3]; Rate 125 g/ha): 80 | Flatsedge plant response rating ([4]; Rate 250 g/ha): 100 | Flatsedge plant response rating ([4]; Rate 500 g/ha): 100 | Plant response rating, Flatsedge ([4]; Rate 62 g/ha): 100 | Plant response rating, Flatsedge ([4]; Rate 125 g/ha): 100 | Plant response rating, Sunflower ([5]; Rate 125 g/ha): 20 | Plant response rating, Sunflower ([5]; Rate 250 g/ha): 50 | Plant response rating, Blackgrass [6, 27]: 0 | Plant response rating, Blackgrass [6, 28]: 0 | Plant response rating, Velvetleaf [7, 27]: 0 | Plant response rating, Velvetleaf [7, 28]: 30 | Plant response rating, Barnyardgrass [8, 27]: 0 | Plant response rating, Barnyardgrass [8, 28]: 50 | Plant response rating, Pigweed [9, 27]: 40 | Plant response rating, Pigweed [9, 28]: 70 | Plant response rating, Corn [10, 27]: 0 | Plant response rating, Corn [10, 28]: 20 | Plant response rating, Surinam grass [11, 27]: 0 | Plant response rating, Surinam grass [11, 28]: 40 | Plant response rating, Wheat [12, 27]: 0 | Plant response rating, Wheat [12, 28]: 0 | Plant response rating, Morningglory [13, 27]: 0 | Plant response rating, Morningglory [13, 28]: 60 | Plant response rating, Foxtail, Giant [14, 27]: 0 | Plant response rating, Foxtail, Giant [14, 28]: 30 | Plant response rating, Lambsquarters [15, 29]: 100 | Plant response rating, Lambsquarters [15, 30]: 100 | Plant response rating, Velvetleaf [16, 29]: 0 | Plant response rating, Velvetleaf [16, 30]: 0 | Plant response rating, Rice [17, 29]: 0 | Plant response rating, Rice [17, 30]: 0 | Plant response rating, Barnyardgrass [18, 29]: 90 | Plant response rating, Barnyardgrass [18, 30]: 50 | Plant response rating, Pigweed [19, 29]: 100 | Plant response rating, Pigweed [19, 30]: 100 | Plant response rating, Corn [20, 29]: 20 | Plant response rating, Corn [20, 30]: 0 | Plant response rating, Crabgrass [21, 29]: 100 | Plant response rating, Crabgrass [21, 30]: 40 | Plant response rating, Surinam grass [22, 29]: 60 | Plant response rating, Surinam grass [22, 30]: 30 | Plant response rating, Morningglory [23, 29]: 10 | Plant response rating, Morningglory [23, 30]: 0 | Plant response rating, Foxtail, Giant [24, 29]: 90 | Plant response rating, Foxtail, Giant [24, 30]: 0 | Plant response rating, Cocklebur [25, 29]: 10 | Plant response rating, Cocklebur [25, 30]: 0 | Plant response rating (0 to 100), Nightshade ([26]; Rate 500 g/ha): 90
